The subject of assay [1] is Rhizoctonia solani. Nature of the assay: In vivo fungicidal activity against Rhizoctonia solani infected in cucumber plants assessed as inhibition of disease symptoms at 200 ug/ml treated one day prior to fungal spore inoculation measured after one week. It counts as functional, organism-based.
The subject of assay [2] is Botrytis cinerea. Description: In vivo fungicidal activity against Botryotinia fuckeliana infected in cucumber plants assessed as inhibition of disease symptoms at 200 ug/ml treated one day prior to fungal spore inoculation measured after one week. It counts as functional, organism-based.
Assay [3] deals with Podosphaera fuliginea. Nature of the assay: In vivo fungicidal activity against Podosphaera fuliginea infected cucumber plants assessed as inhibition of disease symptoms at 200 ug/ml treated one day prior to fungal spore inoculation measured after one week. It counts as functional.
Assay [4] has as its system Pseudoperonospora cubensis. Nature of the assay: In vivo fungicidal activity against Pseudoperonospora cubensis infected in cucumber plants assessed as inhibition of disease symptoms at 200 ug/ml treated one day prior to fungal spore inoculation measured after one week. The class given is functional.

Calls of active or inactive are those of the source. The rule behind the calls is not given here. Bounds are passed on as bounds.

In the case of `CCOc1ccc(C2CC(c3cccc(OCc4ccccc4/C(=C\OC)C(=O)OC)c3)=NN2C(C)=O)cc1` (stereo not given), the inhibition result in assay [1] and in assay [2] was “inactive” in each case. Moreover, the inhibition in vivo (in general, the share of the control response that was lost under treatment) at 200 µg/mL in assay [3] was less than 60%; in assay [4], 100%.

On to `CO/C=C(/C(=O)OC)c1ccccc1COc1ccc(C2=NN(C(C)=O)C(c3ccc(C)cc3)C2)cc1` (stereo not given), for which the inhibition entry in assay [1] and in assay [2] was “inactive” in each case. Further, the inhibition in vivo at 200 µg/mL in assay [3] and in assay [4] was less than 60% throughout.

As for `CO/C=C(/C(=O)OC)c1ccccc1COc1ccccc1C1=NN(C(C)=O)C(c2ccc(C)c(C)c2)C1` (stereo not given), the inhibition entry in assay [1] and in assay [2] was “inactive” each time. The inhibition in vivo at 200 µg/mL in assay [3] and in assay [4] was less than 60% in each case.

`CO/C=C(/C(=O)OC)c1ccccc1COc1ccccc1C1=NN(C(C)=O)C(c2cccc(OC)c2)C1` (stereo not given): the inhibition result in assay [1] and in assay [2] was “inactive” each time. The inhibition in vivo at 200 µg/mL in assay [3] and in assay [4] was less than 60% each time.

With `CO/C=C(/C(=O)OC)c1ccccc1COc1ccc(C2=NN(C(C)=O)C(c3cccs3)C2)cc1` (stereo not given), the inhibition result in assay [1] and in assay [2] was “inactive” each time. Also, the inhibition in vivo at 200 µg/mL in assay [3] is no less than 60%; in assay [4], no less than 70%.

Take `CO/C=C(/C(=O)OC)c1ccccc1COc1ccccc1C1=NN(C(C)=O)C(c2ccc(OC)c(OC)c2)C1` (stereo not given): the inhibition result in assay [1] and in assay [2] was “inactive” each time. Moreover, the inhibition in vivo at 200 µg/mL in assay [3] and in assay [4] was less than 60% throughout.

Turning to `CO/C=C(/C(=O)OC)c1ccccc1COc1cccc(C2=NN(C(C)=O)C(c3cc(OC)c(OC)c(OC)c3)C2)c1` (stereo not given), the inhibition result in assay [1] and in assay [2] was “inactive” each time. Besides, the inhibition in vivo at 200 µg/mL in assay [3] and in assay [4] was less than 60% throughout.

Turning to `CO/C=C(/C(=O)OC)c1ccccc1COc1ccc(C2=NN(C(C)=O)C(c3cc(OC)c(OC)c(OC)c3)C2)cc1` (stereo not given), the inhibition result in assay [1] and in assay [2] was “inactive” throughout. In addition, the inhibition in vivo at 200 µg/mL in assay [3] and in assay [4] was less than 60% each time.

As for `CO/C=C(/C(=O)OC)c1ccccc1COc1ccc(C2=NN(C(C)=O)C(c3ccc(F)cc3)C2)cc1` (stereo not given), the inhibition entry in assay [1] and in assay [2] was “inactive” throughout. In addition, the inhibition in vivo at 200 µg/mL in assay [3] and in assay [4] was less than 60% throughout.

Turning to `CO/C=C(/C(=O)OC)c1ccccc1COc1ccc(C2=NN(C(C)=O)C(c3ccccc3F)C2)cc1` (stereo not given), the inhibition result in assay [1] and in assay [2] was “inactive” in each case. In addition, the inhibition in vivo at 200 µg/mL in assay [3] and in assay [4] was less than 60% in each case.

As to `CO/C=C(/C(=O)OC)c1ccccc1COc1ccc(C2=NN(C(C)=O)C(c3cccc(F)c3)C2)cc1` (stereo not given), the inhibition entry in assay [1] and in assay [2] was “inactive” throughout. The inhibition in vivo at 200 µg/mL in assay [3] and in assay [4] was less than 60% in each case.

As to `CO/C=C(/C(=O)OC)c1ccccc1COc1cccc(C2=NN(C(C)=O)C(c3ccccc3F)C2)c1` (stereo not given), the inhibition result in assay [1] and in assay [2] was “inactive” in each case. The inhibition in vivo at 200 µg/mL is less than 60% in assay [3] and no less than 90% in assay [4].

As to `CCOc1ccc(C2CC(c3ccc(OCc4ccccc4/C(=C\OC)C(=O)OC)cc3)=NN2C(C)=O)cc1` (stereo not given), the inhibition entry in assay [1] and in assay [2] was “inactive” throughout. Also, the inhibition in vivo at 200 µg/mL in assay [3] and in assay [4] was less than 60% in each case.

With `CO/C=C(/C(=O)OC)c1ccccc1COc1ccc(C2=NN(C(C)=O)C(c3ccc(Cl)cc3)C2)cc1` (stereo not given), the inhibition result in assay [1] and in assay [2] was “inactive” throughout. Also, the inhibition in vivo at 200 µg/mL in assay [3] was less than 60%; in assay [4], 100%.

In the case of `CO/C=C(/C(=O)OC)c1ccccc1COc1ccc(C2=NN(C(C)=O)C(c3ccc4c(c3)OCO4)C2)cc1` (stereo not given), the inhibition result in assay [1] and in assay [2] was “inactive” each time. Also, the inhibition in vivo at 200 µg/mL in assay [3] is less than 60%; in assay [4], 100%.

Take `CO/C=C(/C(=O)OC)c1ccccc1COc1ccc(C2=NN(C(C)=O)C(c3ccc(C)c(C)c3)C2)cc1` (stereo not given): the inhibition result in assay [1] and in assay [2] was “inactive” each time. Further, the inhibition in vivo at 200 µg/mL in assay [3] and in assay [4] was less than 60% throughout.

In the case of `CCc1ccc(C2CC(c3ccc(OCc4ccccc4/C(=C\OC)C(=O)OC)cc3)=NN2C(C)=O)cc1` (stereo not given), the inhibition entry in assay [1] and in assay [2] was “inactive” each time. In addition, the inhibition in vivo at 200 µg/mL in assay [3] was less than 60%; in assay [4] it was 100%.

In the case of `CO/C=C(/C(=O)OC)c1ccccc1COc1cccc(C2=NN(C(C)=O)C(c3ccccc3OC)C2)c1` (stereo not given), the inhibition result in assay [1] and in assay [2] was “inactive” throughout. Also, the inhibition in vivo at 200 µg/mL in assay [3] and in assay [4] was no less than 80% in each case.

`CO/C=C(/C(=O)OC)c1ccccc1COc1ccccc1C1=NN(C(C)=O)C(c2ccc(Cl)c(Cl)c2)C1` (stereo not given): the inhibition result in assay [1] and in assay [2] was “inactive” throughout. Also, the inhibition in vivo at 200 µg/mL in assay [3] and in assay [4] was less than 60% each time.

Turning to `CO/C=C(/C(=O)OC)c1ccccc1COc1ccccc1C1=NN(C(C)=O)C(c2ccc(Cl)cc2)C1` (stereo not given), the inhibition entry in assay [1] and in assay [2] was “inactive” throughout. Further, the inhibition in vivo at 200 µg/mL in assay [3] and in assay [4] was less than 60% throughout.

As to `CO/C=C(/C(=O)OC)c1ccccc1COc1ccccc1C1=NN(C(C)=O)C(c2ccc(Br)cc2)C1` (stereo not given), the inhibition entry in assay [1] and in assay [2] was “inactive” in each case. The inhibition in vivo at 200 µg/mL in assay [3] and in assay [4] was less than 60% in each case.

As for `CO/C=C(/C(=O)OC)c1ccccc1COc1cccc(C2=NN(C(C)=O)C(c3cccs3)C2)c1` (stereo not given), the inhibition entry in assay [1] and in assay [2] was “inactive” each time. The inhibition in vivo at 200 µg/mL in assay [3] is less than 60%; in assay [4], 100%.

In the case of `CO/C=C(/C(=O)OC)c1ccccc1COc1ccc(C2=NN(C(C)=O)C(c3ccc(OC)cc3)C2)cc1` (stereo not given), the inhibition result in assay [1] and in assay [2] was “inactive” throughout. Moreover, the inhibition in vivo at 200 µg/mL in assay [3] and in assay [4] was less than 60% each time.

As to `CO/C=C(/C(=O)OC)c1ccccc1COc1cccc(C2=NN(C(C)=O)C(c3cccc(F)c3)C2)c1` (stereo not given), the inhibition result in assay [1] and in assay [2] was “inactive” in each case. In addition, the inhibition in vivo at 200 µg/mL in assay [3] and in assay [4] was less than 60% in each case.

Turning to `CO/C=C(/C(=O)OC)c1ccccc1COc1cccc(C2=NN(C(C)=O)C(c3ccccc3Br)C2)c1` (stereo not given), the inhibition result in assay [1] and in assay [2] was “inactive” throughout. In addition, the inhibition in vivo at 200 µg/mL was less than 60% in assay [3] and 100% in assay [4].

Source of the values: ChEMBL document CHEMBL3046363, “Synthesis, fungicidal, and insecticidal activities of beta-Methoxyacrylate-containing N-acetyl pyrazoline derivatives” (J Agric Food Chem, 2008).
